Assay results published in patent publication US20250145715A1, “B7-H3 TARGETING FUSION PROTEINS AND METHODS OF USE THEREOF” (GT Biopharma, Inc., priority 2021, published 2025).

Tests used:
Assay type in all cases: cell-based, human
[1] = system: prostate cancer cells; experiment: Cell index over time, killing of prostate cancer cells
Description: FIG. 21 is a graph illustrating cell index over time.

[2] = system: H929 cells; experiment: IncuCyte Zoom NK cell killing of H929
Description: FIGS. 8A-8D illustrate the ability of peripheral blood NK cells with or without B7-H3-TriKE to kill myeloma cells in live imaging IncuCyte Zoom assays. FIG. 8A is a graph showing the effects with effector:target (E:T) ratios of 2:1 and 4:1 on H929 cells. FIG. 8B is a graph showing the effects with effector:target (E:T) ratios of 2:1 and 4:1 on MM1S cells. FIG. 8C is a graph showing the effects with effector:target (E:T) ratios of 2:1 and 4:1 on RPMI-8226 cells. FIG. 8D is a graph showing the effects with effector:target (E:T) ratios of 2:1 and 4:1 on U266 cells.
FIGS. 9A-9D illustrate the efficacy of B7-H3-TriKE with the proteasome inhibitor bortezomib (10 nM) and the immunomodulatory drug lenalidomide (5 μM). FIG. 9A is a graph showing the effect of the combination therapy on H929 cells after 48 hours. FIG. 9B is a graph showing the effect of the combination therapy on RPMI-8226 cells after 48 hours. FIG. 9C is a graph showing the effect of the combination therapy on MM1S cells after 48 hours. FIG. 9D is a graph showing the effect of the combination therapy on U266 cells after 48 hours.
The ability of peripheral blood NK cells with or without B7-H3-TriKE to kill myeloma cells was compared in live imaging IncuCyte Zoom assays with escalating doses of TriKE. Maximal killing occurred with 3 nM concentration.
The efficacy of B7-H3-TriKE with the proteasome inhibitor bortezomib (10 nM) and the immunomodulatory drug lenalidomide (5 μM) was also tested. Cytotoxicity curves were compared by repeated measures ANOVA and performed in triplicate.

[3] = system: C4-2 prostate cancer cells; experiment: NK cell CD107a / IFNγ flow cytometry against C4-2; details: normal donor and prostate cancer patient NK cells, vs controls
Description: FIG. 15A is a graph showing pooled analysis of proportion of NK cells from healthy donors or prostate cancer patients expressing CD107a+ (top) or IFNγ (bottom) against C4-2 targets (N=9 for healthy donors, N=3 for patients). FIG. 15B is a graph showing pooled analysis of proportion of NK cells from healthy donors or prostate cancer patients expressing CD107a+ (top) or IFNγ (bottom) against DU145 targets (N=9 for healthy donors, N=3 for patients). FIG. 15C is a graph showing pooled analysis of proportion of NK cells from healthy donors or prostate cancer patients expressing CD107a+ (top) or IFNγ (bottom) against LNCaP targets (N=9 for healthy donors, N=3 for patients). FIG. 15D is a graph showing pooled analysis of proportion of NK cells from healthy donors or prostate cancer patients expressing CD107a+ (top) or IFNγ (bottom) against PC3 targets (N=9 for healthy donors, N=3 for patients). * p<0.05, ** p<0.01, *** p<0.001, and **** p<0.0001.
FIG. 23A is a graph illustrating percent CD107a+ NK cells in PBMCNK alone in the presence of 0.3 nM TriKE. […]
ADCC was measured in a flow cytometry assay by evaluating degranulation via CD107a (lysosomal-associated membrane protein LAMP-1) and intracellular IFNγ production. […] Samples were washed and evaluated in an LSRII flow cytometer (BD Biosciences, San Jose, CA, USA). […]

## B7-H3 TriKE: camelid nanobodies targeting CD16 and B7-H3 joined by IL-15 and two linkers; sequence table equates the name with cam1615B7-H3
[1]
  time to killing of prostate cancer cells after initiation of treatment: within a couple of hours
[2]; E:T 2:1
  NK cell killing of H929: more potently killed
[2]; E:T 4:1
  NK cell killing of H929: no difference in killing

## cam1615B7-H3: second-generation TriKE: humanized camelid anti-CD16 VHH, human wild-type IL-15, anti-B7-H3 mAb 376.96 scFv; SEQ ID NO:1
[3]
  NK cell IFNγ production against C4-2: enhanced
  NK cell degranulation (CD107a) against C4-2: enhanced
